Laboratory results reported in ChEMBL document CHEMBL1201862, “PubChem BioAssay data set” (2004).
Active and inactive are the calls of the source.

Key:
Aminopeptidase N = molecular target: T1, Aminopeptidase N (Plasmodium falciparum FcB1/Columbia, UniProt O96935); assay: P. falciparum M1AAP inhibitors, biochemical, fluorogenic H-Leu-NHMec substrate, 1536-well (AID 1445); set-up: species or system Plasmodium falciparum 3D7, 3D7
T1 sequence (O96935 whole entry): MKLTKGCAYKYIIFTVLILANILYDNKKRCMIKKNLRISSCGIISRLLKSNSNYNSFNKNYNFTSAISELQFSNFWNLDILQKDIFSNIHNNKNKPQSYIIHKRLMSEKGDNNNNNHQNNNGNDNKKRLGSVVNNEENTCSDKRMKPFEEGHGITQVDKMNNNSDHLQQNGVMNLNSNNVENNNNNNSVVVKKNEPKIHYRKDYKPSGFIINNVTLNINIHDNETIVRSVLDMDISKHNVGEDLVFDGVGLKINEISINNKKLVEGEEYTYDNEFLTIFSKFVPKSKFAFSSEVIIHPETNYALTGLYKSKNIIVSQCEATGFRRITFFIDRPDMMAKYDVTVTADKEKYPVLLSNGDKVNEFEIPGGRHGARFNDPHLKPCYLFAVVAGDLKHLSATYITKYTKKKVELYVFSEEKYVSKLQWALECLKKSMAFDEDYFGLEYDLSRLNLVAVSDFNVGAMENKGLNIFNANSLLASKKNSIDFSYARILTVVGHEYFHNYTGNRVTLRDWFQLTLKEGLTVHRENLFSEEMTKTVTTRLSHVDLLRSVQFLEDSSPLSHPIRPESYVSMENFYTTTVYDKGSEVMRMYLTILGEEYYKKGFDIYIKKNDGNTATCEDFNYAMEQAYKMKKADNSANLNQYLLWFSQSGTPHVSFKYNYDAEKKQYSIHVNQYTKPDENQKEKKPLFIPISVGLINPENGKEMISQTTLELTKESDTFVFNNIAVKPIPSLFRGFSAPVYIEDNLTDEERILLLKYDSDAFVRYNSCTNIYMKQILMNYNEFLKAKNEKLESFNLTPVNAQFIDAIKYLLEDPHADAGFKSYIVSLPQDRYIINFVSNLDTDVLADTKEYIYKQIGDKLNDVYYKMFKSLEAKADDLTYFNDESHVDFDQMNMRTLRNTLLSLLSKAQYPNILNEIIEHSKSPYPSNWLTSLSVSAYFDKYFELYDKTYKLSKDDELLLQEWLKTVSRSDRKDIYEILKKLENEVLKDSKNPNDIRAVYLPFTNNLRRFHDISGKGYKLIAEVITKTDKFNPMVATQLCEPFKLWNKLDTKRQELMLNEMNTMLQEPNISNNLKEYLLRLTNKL

Leucine aminopeptidase = molecular target: T2, Leucine aminopeptidase (Plasmodium falciparum 3D7, UniProt Q8IL11); assay: P. falciparum M17LAP inhibitors, primary screen, biochemical, fluorogenic H-Leu-NHMec substrate, 1536-well (AID 1619); type: functional
T2 sequence (Q8IL11 whole entry): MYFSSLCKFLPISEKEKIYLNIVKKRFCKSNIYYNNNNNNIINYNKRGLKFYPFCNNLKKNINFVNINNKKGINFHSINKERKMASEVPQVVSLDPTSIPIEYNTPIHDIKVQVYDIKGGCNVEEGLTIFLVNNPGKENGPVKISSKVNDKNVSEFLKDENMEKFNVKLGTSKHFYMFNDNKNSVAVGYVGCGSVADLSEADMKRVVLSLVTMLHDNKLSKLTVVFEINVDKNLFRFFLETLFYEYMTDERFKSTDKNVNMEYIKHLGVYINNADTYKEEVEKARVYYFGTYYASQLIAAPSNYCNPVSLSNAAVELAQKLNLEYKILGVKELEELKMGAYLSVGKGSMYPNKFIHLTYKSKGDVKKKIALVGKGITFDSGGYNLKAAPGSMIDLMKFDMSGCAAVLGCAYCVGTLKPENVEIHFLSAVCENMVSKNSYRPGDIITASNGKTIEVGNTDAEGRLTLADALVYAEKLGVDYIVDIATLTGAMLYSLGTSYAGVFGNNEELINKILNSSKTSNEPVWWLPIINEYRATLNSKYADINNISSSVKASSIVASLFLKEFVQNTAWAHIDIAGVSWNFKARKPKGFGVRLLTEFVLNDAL

[1] = molecular target: T3, Ubiquitin-conjugating enzyme E2 N (Homo sapiens, UniProt P61088); type: functional;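 further: Dose-response confirmation in a TR-FRET assay detecting UBC13-driven polyubiquitin chain formation, inhibition measured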
T3 sequence (P61088 whole entry): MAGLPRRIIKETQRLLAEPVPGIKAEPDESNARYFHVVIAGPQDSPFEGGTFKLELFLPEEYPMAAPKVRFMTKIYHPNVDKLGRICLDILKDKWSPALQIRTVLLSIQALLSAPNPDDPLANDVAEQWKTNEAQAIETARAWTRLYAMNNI

Cytochrome P450 3A4 = Cytochrome P450 3A4 (Homo sapiens, UniProt P08684); conditions: Potency;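 further: confirmatory qHTS run detecting inhibitors and substrates of CYP3A4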
[2] = HEp-2 cell cytotoxicity, dose response, cytotoxicity control for RSV inhibitor project, HTS (AID 2410); type: functional; conditions: human respiratory syncytial virus
[3] = molecular target: T4, Voltage-gated N-type calcium channel alpha-1B subunit/Amyloid beta A4 precursor protein-binding family A member 1 (Homo sapiens, UniProt Q00975+Q02410); type: protein assay
[4] = molecular target: T4, Voltage-gated N-type calcium channel alpha-1B subunit/Amyloid beta A4 precursor protein-binding family A member 1; type: protein assay; remark: listed apart in the source
Protein RecA = molecular target: T5, Protein RecA (Mycobacterium tuberculosis, UniProt P9WHJ3); assay: Fluorescence Cell-Free Homogeneous Dose Retest to Identify Inhibitors of RecA-Intein Splicing Activity. [Related pubchem assays (depositor defined):AID2097, AID2223, AID489010, AID492950]; type: functional
T5 sequence (P9WHJ3 whole entry): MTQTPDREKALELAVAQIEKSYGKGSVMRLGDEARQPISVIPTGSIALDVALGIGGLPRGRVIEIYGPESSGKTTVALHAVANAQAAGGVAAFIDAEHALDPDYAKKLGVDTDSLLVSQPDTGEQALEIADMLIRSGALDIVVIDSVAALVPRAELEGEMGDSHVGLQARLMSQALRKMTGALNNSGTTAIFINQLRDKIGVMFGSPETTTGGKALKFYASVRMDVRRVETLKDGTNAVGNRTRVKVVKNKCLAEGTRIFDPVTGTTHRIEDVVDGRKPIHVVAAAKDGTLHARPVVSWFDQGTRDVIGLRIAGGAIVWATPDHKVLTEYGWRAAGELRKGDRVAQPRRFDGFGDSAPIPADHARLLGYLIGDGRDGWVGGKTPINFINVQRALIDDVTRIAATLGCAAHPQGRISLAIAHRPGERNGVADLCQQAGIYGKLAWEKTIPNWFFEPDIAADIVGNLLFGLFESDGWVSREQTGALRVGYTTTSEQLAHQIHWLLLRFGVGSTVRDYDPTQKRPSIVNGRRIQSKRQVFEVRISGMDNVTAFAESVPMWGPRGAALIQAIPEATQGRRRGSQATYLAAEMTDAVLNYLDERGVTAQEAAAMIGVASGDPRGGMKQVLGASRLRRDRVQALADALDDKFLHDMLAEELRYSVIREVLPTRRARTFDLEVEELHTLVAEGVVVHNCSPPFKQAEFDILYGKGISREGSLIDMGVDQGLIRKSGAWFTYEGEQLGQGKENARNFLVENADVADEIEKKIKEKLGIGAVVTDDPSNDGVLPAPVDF

[5] = molecular target: T6, Replicative DNA helicase DnaB (Mycobacterium tuberculosis, UniProt P9WMR3); assay: DnaB intein splicing inhibitors, dose response, biochemical, cell-free fluorescence (AID 449749); type: functional
T6 sequence (P9WMR3 whole entry): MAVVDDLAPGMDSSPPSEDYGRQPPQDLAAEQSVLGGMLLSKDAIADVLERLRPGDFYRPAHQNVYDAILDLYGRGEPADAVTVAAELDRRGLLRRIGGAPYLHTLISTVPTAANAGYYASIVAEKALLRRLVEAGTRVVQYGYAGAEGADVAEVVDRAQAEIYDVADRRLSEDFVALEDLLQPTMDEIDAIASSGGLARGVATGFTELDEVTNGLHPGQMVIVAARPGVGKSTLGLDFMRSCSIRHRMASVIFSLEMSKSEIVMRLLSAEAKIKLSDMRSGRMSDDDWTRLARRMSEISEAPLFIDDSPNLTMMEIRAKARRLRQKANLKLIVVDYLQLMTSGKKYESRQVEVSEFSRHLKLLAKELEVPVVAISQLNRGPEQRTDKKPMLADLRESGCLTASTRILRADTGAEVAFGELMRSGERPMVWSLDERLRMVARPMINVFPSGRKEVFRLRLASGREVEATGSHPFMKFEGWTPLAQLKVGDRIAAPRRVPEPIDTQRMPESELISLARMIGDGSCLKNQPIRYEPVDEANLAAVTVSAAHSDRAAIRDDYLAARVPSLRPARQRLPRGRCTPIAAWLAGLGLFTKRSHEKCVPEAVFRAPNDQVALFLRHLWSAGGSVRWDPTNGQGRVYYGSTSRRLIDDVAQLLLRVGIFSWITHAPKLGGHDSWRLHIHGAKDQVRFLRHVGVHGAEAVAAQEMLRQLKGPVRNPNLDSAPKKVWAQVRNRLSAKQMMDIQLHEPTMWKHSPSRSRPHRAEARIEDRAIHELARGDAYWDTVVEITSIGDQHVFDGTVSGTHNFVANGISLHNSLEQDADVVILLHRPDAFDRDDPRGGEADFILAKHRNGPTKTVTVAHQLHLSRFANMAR

[6] = molecular target: Nucleotide-binding oligomerization domain-containing protein 2 (Homo sapiens, UniProt Q9HC29); assay: NOD2 signaling inhibitors, cell-based, luminescence, uHTS, HEK293 (AID 1566); type: functional
HEK293 [7] = assay: cells; type: functional, cell-based; conditions: Homo sapiens
HEK293 [8] = assay: cells; type: functional, cell-based; conditions: Homo sapiens; remark: listed apart in the source
HEK293 [9] = assay: NOD1 signaling inhibitors, primary screen, cell-based, luminescence, uHTS (AID 1578); type: functional; conditions: Homo sapiens
HEK293 [10] = assay: NOD2 signaling inhibitors in MDP-stimulated cells, cell-based, uHTS, luminescence (AID 2001); type: functional; conditions: Homo sapiens
HEK293 [11] = assay: cells; type: functional, cell-based; conditions: Homo sapiens; remark: listed apart in the source

T4 sequence (Q00975 whole entry): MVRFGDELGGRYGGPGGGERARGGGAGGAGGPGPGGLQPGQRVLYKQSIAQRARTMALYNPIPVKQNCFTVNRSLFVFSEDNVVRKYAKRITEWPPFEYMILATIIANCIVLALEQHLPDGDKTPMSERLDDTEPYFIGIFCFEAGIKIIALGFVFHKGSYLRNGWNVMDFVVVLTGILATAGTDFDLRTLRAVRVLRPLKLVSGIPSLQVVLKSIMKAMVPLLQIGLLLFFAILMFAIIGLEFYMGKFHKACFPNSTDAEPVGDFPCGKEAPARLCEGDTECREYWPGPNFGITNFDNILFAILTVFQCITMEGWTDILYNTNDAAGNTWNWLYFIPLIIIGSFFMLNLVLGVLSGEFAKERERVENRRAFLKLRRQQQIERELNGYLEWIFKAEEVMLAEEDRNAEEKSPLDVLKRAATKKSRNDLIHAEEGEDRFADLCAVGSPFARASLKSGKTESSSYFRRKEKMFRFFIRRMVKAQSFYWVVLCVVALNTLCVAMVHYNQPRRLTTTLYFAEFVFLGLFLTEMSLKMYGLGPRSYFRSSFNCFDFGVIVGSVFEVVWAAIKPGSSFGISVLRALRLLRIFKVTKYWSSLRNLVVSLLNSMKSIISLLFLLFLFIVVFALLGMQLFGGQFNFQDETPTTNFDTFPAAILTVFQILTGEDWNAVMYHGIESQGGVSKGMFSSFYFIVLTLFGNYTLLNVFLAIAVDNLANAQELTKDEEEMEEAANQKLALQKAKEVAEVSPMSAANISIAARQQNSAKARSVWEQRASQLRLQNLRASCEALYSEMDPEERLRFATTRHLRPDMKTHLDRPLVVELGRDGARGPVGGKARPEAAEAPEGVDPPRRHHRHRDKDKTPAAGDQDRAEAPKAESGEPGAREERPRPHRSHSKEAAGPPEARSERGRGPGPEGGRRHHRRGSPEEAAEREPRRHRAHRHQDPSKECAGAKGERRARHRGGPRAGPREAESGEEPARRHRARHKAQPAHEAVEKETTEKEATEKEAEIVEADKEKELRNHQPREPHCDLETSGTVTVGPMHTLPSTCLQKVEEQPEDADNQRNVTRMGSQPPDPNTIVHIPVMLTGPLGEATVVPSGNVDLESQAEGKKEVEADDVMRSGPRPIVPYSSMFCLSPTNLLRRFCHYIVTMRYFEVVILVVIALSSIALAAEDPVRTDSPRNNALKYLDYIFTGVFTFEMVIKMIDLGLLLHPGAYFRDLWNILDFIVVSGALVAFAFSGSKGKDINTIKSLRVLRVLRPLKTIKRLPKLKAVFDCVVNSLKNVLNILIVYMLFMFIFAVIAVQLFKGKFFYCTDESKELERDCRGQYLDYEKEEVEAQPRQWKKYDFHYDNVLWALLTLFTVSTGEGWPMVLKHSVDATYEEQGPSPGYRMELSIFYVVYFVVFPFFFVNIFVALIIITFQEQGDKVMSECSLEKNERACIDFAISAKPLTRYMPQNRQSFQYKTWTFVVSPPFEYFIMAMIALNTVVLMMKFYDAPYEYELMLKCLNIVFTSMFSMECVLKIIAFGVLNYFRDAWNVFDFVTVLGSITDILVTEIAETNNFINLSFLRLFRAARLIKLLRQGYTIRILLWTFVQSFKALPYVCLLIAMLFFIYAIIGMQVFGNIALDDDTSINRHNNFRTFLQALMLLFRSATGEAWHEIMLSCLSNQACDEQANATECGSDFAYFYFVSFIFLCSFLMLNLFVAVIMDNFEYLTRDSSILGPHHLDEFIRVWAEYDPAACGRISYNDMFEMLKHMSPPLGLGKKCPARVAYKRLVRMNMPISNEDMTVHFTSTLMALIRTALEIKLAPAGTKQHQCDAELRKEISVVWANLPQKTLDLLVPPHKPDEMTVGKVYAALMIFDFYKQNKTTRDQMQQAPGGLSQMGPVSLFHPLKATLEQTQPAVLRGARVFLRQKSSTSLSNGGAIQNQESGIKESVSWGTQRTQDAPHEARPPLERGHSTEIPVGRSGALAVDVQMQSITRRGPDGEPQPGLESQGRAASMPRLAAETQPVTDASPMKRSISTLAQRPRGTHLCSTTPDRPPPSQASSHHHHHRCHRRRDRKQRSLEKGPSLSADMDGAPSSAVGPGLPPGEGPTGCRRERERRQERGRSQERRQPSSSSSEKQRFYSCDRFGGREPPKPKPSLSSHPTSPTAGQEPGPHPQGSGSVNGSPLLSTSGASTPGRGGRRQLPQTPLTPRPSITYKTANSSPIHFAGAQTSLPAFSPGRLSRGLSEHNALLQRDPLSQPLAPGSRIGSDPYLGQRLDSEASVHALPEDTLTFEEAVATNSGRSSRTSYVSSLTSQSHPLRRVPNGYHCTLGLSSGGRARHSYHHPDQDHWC
T4 sequence (Q02410 whole entry): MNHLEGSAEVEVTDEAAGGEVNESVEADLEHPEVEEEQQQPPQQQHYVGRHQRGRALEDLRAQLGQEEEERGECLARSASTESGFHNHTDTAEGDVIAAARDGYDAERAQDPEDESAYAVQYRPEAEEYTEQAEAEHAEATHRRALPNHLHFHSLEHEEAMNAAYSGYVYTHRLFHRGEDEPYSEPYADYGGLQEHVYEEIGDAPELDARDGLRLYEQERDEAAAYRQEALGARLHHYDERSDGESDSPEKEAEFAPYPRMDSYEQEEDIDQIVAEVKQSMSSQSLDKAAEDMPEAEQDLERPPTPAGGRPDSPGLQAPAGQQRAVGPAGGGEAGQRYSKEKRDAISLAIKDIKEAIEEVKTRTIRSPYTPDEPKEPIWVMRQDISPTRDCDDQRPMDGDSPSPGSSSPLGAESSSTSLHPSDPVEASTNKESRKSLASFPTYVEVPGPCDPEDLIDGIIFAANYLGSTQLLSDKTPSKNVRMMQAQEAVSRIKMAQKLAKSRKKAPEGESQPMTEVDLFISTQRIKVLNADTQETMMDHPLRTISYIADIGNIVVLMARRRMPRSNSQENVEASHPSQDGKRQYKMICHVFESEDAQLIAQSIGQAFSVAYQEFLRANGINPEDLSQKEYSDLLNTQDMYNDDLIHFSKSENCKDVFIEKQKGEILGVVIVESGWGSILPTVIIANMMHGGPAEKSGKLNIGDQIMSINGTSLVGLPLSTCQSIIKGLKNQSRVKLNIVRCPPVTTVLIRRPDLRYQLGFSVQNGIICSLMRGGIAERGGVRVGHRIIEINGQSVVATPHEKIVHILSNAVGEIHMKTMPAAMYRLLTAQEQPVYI
Cytochrome P450 3A4, sequence (P08684 whole entry): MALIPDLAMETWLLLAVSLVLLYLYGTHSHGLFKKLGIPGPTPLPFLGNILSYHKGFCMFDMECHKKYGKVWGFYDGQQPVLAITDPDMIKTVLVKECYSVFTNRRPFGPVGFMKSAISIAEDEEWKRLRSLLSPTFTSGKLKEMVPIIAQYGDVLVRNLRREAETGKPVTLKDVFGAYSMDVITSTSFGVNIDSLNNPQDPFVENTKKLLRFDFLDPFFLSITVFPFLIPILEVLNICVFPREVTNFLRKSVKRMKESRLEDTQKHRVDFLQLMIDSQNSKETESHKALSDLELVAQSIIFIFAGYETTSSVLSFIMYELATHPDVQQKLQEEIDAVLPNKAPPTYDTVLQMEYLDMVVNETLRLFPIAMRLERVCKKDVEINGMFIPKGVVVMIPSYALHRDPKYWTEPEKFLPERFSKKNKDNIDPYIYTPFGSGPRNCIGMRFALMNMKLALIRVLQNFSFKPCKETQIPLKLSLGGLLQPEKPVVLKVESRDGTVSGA
Nucleotide-binding oligomerization domain-containing protein 2, sequence (Q9HC29 whole entry, the tested form may be a part): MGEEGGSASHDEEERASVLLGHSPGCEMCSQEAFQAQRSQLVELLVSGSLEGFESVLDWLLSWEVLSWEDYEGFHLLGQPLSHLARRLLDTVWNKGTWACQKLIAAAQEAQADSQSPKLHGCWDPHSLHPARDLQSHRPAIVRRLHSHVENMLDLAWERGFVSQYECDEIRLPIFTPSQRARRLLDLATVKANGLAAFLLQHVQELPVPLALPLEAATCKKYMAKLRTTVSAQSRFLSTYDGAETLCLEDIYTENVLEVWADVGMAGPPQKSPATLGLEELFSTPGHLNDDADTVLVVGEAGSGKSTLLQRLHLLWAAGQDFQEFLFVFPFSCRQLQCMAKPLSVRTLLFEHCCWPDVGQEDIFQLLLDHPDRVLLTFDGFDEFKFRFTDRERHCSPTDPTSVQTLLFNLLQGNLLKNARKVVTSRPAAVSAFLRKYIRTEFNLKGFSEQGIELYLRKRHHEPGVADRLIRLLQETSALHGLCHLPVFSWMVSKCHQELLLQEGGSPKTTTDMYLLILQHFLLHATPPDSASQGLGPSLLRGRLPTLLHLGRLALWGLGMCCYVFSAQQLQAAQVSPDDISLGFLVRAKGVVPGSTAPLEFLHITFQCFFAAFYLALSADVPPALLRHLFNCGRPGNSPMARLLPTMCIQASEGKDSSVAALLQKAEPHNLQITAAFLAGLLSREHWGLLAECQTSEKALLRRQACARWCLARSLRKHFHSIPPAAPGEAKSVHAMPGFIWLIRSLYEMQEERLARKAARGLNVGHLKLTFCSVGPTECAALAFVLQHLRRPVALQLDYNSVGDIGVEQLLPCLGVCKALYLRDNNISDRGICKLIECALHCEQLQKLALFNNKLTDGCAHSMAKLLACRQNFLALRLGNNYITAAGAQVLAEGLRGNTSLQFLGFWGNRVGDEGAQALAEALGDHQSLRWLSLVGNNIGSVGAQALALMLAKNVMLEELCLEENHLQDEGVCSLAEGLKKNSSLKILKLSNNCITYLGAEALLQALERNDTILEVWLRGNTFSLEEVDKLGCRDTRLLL

Compound: COc1ccccc1CNC(=O)C1CCCN1S(=O)(=O)c1cccc2cccnc12 (stereo unspecified)
- IC50 (cells): 18.6 µM (active)

Compound: Nc1nonc1-c1nc2ccccc2n1CC(=O)N/N=C/c1ccc(-c2ccccc2C(=O)O)o1
- IC50 (Aminopeptidase N): 82.7 µM (active)
- IC50 (Leucine aminopeptidase): 73.8 µM (active)

Compound: Cc1cc(C)cc(N(C(=O)c2snc(C(N)=O)c2N)C(C(=O)NCC2CCCO2)c2cccs2)c1 (stereo unspecified)
- IC50 [1]: > 20 µM (inactive)

Compound: CC1(C)C(O)CC[C@]2(C)C1CC[C@@]1(C)C2C(=O)C=C2[C@@H]3C[C@@](C)(C(=O)O)CC[C@@]3(C)CCC21C (stereo partly specified)
- AC50 (Cytochrome P450 3A4): 39.8 µM (inconclusive)

Compound: COC(=O)c1cc(Nc2cc(C)c3c(O)cccc3n2)cc(C(=O)OC)c1
- CC50 [2]: 44.4 µM (active)
- IC50 (cells): > 50 µM (active)

Compound: O=c1cc(CO)oc(C(Nc2cccc(C(F)(F)F)c2)c2ccccn2)c1O (stereo unspecified)
- IC50 [1]: > 20 µM (inactive)
- IC50 [3]: 8.71 µM (active)
- IC50 [4]: 1.09 µM (active)

Compound: C/C(CC(=O)Nc1cc(C)ccn1)=N\NC(=O)COc1cccc(C)c1
- EC50 (Protein RecA): 1.54 µM (active)
- IC50 (Leucine aminopeptidase): 90.2 µM (active)
- AC50 [5]: 2.37 µM (active)

Compound: CCn1c(SCC(=O)Nc2nc(-c3ccccc3)cs2)nnc1-c1ccccc1
- EC50 [6]: 7.91 µM (active)
- IC50 (HEK293 [7]): > 20 µM (inactive)
- IC50 (HEK293 [8]): 11.3 µM (active)
- EC50 (HEK293 [9]): 7.28 µM (active)
- IC50 (HEK293 [10]): 5.74 µM (active)
- IC50 (HEK293 [11]): 6.13 µM (active)

Compound: Cc1c(-c2ccc(OCc3ccccc3)cc2)nc2ccccc2c1C(=O)O
- CC50 [2]: 42.6 µM (active)
- IC50 (cells): 24.7 µM (active)
